Our source for the IC50 values is BindingDB's records for doi:10.1021/jm010294e (Novartis Institute For Biomedical Reasearch, 2001).

Usually IC50 stands for the point on the concentration scale where inhibition reaches its midpoint. Read a high IC50 as a need for much substance.

The target in the assay is Apolipoprotein B-100 (Homo sapiens, UniProt P04114). Briefly: Inhibition of apolipoprotein B (apoB) secreted by human hepatoma cells (Hep G2) […].
Sequence of Apolipoprotein B-100 (P04114 whole entry C1422Y): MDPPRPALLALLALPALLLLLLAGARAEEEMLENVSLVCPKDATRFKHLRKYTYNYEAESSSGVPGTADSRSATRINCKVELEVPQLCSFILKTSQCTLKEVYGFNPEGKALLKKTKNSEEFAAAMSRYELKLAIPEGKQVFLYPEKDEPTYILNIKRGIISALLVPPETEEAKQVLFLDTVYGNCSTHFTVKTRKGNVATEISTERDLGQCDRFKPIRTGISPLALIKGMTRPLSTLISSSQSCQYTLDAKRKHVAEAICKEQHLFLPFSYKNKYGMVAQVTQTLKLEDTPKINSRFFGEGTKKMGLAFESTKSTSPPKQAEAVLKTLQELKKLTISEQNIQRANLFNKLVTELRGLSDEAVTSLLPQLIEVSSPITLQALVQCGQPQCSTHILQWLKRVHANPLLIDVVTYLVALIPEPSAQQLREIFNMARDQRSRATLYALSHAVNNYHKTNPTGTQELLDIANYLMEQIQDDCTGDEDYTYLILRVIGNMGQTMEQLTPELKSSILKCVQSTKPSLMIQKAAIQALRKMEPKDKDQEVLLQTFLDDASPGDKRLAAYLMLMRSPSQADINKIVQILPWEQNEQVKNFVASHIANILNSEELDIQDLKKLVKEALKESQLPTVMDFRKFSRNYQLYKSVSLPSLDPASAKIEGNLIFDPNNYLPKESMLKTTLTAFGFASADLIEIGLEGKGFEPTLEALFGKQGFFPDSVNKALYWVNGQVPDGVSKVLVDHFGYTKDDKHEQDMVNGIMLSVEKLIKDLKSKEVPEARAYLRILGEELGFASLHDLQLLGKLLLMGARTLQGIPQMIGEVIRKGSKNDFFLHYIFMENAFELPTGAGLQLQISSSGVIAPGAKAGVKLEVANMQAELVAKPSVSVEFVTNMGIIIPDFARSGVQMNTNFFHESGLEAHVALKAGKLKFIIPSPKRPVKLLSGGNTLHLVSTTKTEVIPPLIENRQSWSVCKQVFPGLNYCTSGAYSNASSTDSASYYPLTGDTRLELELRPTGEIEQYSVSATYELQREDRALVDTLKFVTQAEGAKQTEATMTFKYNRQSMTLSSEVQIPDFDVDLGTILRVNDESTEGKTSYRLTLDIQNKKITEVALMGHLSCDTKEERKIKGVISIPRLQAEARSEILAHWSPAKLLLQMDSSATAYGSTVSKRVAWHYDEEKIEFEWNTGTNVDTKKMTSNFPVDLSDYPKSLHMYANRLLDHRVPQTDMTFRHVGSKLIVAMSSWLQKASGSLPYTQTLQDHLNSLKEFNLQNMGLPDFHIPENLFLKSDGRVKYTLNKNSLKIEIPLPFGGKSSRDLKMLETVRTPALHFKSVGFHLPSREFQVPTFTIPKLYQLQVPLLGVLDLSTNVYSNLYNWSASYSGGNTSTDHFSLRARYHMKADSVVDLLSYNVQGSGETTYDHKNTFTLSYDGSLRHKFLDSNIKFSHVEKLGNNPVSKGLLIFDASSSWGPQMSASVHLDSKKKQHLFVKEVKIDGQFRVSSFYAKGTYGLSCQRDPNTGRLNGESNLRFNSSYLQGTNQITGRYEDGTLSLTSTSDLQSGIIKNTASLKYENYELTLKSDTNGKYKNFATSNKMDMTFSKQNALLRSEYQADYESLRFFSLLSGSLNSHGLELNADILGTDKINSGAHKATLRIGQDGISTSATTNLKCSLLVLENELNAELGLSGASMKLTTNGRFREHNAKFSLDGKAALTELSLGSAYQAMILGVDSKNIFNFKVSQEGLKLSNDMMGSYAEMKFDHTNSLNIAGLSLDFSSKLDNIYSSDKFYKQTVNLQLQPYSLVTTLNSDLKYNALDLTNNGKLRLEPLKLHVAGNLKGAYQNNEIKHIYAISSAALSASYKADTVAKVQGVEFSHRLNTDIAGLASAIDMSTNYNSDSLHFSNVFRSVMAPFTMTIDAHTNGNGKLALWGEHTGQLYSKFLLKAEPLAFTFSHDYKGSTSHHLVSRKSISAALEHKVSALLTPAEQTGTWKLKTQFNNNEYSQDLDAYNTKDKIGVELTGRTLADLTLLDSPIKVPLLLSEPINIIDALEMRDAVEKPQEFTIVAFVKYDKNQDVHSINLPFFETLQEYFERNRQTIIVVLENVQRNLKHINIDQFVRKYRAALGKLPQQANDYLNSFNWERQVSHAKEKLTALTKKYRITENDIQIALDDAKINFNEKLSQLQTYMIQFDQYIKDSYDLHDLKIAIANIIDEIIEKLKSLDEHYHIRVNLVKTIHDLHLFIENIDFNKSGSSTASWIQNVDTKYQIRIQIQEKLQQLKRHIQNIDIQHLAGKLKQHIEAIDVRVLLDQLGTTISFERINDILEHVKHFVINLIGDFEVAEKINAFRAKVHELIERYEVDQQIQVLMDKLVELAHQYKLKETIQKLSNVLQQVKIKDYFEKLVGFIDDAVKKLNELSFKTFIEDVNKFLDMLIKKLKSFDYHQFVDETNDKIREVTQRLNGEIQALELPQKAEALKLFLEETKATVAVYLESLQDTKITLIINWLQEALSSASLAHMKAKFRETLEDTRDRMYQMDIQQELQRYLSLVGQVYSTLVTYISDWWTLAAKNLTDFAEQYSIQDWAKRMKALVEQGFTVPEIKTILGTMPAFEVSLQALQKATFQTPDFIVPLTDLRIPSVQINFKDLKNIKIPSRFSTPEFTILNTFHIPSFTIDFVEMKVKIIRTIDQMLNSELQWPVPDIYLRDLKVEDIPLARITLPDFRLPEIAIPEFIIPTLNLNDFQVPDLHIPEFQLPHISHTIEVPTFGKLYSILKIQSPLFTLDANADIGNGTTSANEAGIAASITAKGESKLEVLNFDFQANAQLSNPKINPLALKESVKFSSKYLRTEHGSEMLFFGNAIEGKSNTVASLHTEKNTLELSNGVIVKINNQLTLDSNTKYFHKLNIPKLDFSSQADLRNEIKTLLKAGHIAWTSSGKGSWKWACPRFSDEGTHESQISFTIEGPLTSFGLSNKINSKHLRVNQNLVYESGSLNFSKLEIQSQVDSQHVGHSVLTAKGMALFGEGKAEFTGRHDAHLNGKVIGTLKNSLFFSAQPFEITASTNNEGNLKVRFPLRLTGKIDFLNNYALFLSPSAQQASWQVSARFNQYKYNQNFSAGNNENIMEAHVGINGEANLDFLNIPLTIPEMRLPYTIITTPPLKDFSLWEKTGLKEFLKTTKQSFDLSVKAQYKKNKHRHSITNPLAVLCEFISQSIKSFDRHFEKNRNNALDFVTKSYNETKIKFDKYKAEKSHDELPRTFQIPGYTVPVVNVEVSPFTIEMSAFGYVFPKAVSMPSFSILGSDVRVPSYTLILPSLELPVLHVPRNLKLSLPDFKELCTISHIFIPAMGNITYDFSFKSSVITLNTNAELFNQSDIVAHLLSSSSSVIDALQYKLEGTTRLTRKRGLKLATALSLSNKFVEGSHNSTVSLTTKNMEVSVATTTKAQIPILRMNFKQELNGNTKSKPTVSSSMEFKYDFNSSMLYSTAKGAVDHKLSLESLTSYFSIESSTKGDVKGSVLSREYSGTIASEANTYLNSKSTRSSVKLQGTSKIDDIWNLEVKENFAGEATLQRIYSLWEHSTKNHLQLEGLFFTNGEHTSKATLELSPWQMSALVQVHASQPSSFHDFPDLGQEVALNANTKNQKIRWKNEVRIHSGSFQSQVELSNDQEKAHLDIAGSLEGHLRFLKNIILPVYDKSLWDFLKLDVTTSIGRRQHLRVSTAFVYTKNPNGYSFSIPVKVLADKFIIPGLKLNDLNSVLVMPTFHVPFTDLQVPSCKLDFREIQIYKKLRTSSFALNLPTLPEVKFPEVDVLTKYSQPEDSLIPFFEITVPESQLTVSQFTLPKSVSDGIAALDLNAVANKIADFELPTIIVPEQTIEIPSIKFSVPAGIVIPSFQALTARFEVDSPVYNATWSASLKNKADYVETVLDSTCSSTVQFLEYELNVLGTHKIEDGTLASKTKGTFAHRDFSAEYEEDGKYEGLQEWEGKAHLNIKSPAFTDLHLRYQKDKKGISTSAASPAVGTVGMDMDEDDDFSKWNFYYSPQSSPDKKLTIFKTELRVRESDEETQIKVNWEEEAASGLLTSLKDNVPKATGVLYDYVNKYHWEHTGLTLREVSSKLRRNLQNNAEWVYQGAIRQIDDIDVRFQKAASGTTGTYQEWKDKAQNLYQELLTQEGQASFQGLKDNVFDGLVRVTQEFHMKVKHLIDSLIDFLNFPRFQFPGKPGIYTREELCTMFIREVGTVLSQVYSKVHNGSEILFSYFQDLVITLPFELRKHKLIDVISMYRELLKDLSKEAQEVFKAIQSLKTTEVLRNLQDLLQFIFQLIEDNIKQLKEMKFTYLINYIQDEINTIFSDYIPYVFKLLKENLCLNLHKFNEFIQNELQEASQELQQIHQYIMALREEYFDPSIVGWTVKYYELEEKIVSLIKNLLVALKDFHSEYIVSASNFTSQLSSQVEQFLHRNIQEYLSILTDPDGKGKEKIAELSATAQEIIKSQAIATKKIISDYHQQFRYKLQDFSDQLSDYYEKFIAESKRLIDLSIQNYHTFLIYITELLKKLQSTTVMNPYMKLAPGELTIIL
`COC(=O)NC1CCc2ccc(NC(=O)c3cc(C)cc(C)c3-c3ccc(C(F)(F)F)cc3)cc2CC1` (centres undefined) [{2-[(4,6-Dimethyl-4'-trifluoromethyl-biphenyl-2-carbonyl)-amino]-6,7,8,9-tetrahydro-5H-benzocyclohepten-7-yl}-carbamic acid methyl ester] came in with an IC50 of 2.4 nM. On to `COC(=O)NC1CCc2ccc(NC(=O)c3cccc(C)c3-c3ccc(C(F)(F)F)cc3)cc2CC1` (centres undefined) [{2-[(6-Methyl-4'-trifluoromethyl-biphenyl-2-carbonyl)-amino]-6,7,8,9-tetrahydro-5H-benzocyclohepten-7-yl}-carbamic acid methyl ester], for which the IC50 was determined as 1.6 nM. The value for `COC(=O)NC1Cc2ccc(NC(=O)c3cc(C)cc(C)c3-c3ccc(Cl)cc3)cc2C1` (centres undefined) [{5-[(4'-Chloro-4,6-dimethyl-biphenyl-2-carbonyl)-amino]-indan-2-yl}-carbamic acid methyl ester] was 3.4 nM; that for `COC(=O)NCC1Cc2ccc(NC(=O)c3cccc(C)c3-c3ccc(Cl)cc3)cc2C1` (centres undefined) [{5-[(4'-Chloro-6-methyl-biphenyl-2-carbonyl)-amino]-indan-2-ylmethyl}-carbamic acid methyl ester] was 8.7 nM; that for `COC(=O)N[C@@H]1Cc2ccc(NC(=O)c3ccccc3-c3ccc(C(F)(F)F)cc3)cc2C1` [{5-[(4'-Trifluoromethyl-biphenyl-2-carbonyl)-amino]-indan-2-yl}-carbamic acid methyl ester] was 5.2 nM. `COC(=O)N[C@H]1Cc2ccc(NC(=O)c3ccccc3-c3ccc(C(F)(F)F)cc3)cc2C1` [{5-[(4'-Trifluoromethyl-biphenyl-2-carbonyl)-amino]-indan-2-yl}-carbamic acid methyl ester] returned an IC50 of 1.9 nM. Next, `COC(=O)N[C@H]1Cc2ccc(NC(=O)c3cc(C(F)(F)F)ccc3-c3ccc(C(F)(F)F)cc3)cc2C1` [{5-[(4,4'-Bis-trifluoromethyl-biphenyl-2-carbonyl)-amino]-indan-2-yl}-carbamic acid methyl ester]: 7.5 nM; `COC(=O)NCC1Cc2ccc(NC(=O)c3cc(C)cc(C)c3-c3ccc(C(F)(F)F)cc3)cc2C1` (centres undefined) [{5-[(4,6-Dimethyl-4'-trifluoromethyl-biphenyl-2-carbonyl)-amino]-indan-2-ylmethyl}-carbamic acid methyl ester]: 2.2 nM; `COC(=O)N[C@@H]1Cc2ccc(NC(=O)c3cc(C)cc(C)c3-c3ccc(C(F)(F)F)cc3)cc2C1` [{5-[(4,6-Dimethyl-4'-trifluoromethyl-biphenyl-2-carbonyl)-amino]-indan-2-yl}-carbamic acid methyl ester]: 2.5 nM. The value for `COC(=O)N[C@H]1Cc2ccc(NC(=O)c3cc(C)cc(C)c3-c3ccc(C(F)(F)F)cc3)cc2C1` [{5-[(4,6-Dimethyl-4'-trifluoromethyl-biphenyl-2-carbonyl)-amino]-indan-2-yl}-carbamic acid methyl ester] was 1.1 nM.

`COC(=O)N[C@H]1Cc2ccc(NC(=O)c3cc(C)ccc3-c3ccc(C(F)(F)F)cc3)cc2C1` [{5-[(4-Methyl-4'-trifluoromethyl-biphenyl-2-carbonyl)-amino]-indan-2-yl}-carbamic acid methyl ester] returned an IC50 of 2.2 nM. Next, `COC(=O)N[C@H]1Cc2ccc(NC(=O)c3cccc(C(F)(F)F)c3-c3ccc(C(F)(F)F)cc3)cc2C1` [{5-[(6,4'-Bis-trifluoromethyl-biphenyl-2-carbonyl)-amino]-indan-2-yl}-carbamic acid methyl ester]: 1.8 nM.

The compound `COC(=O)NCC1Cc2ccc(NC(=O)c3cccc(C)c3-c3ccc(C(F)(F)F)cc3)cc2C1` (centres undefined) [{5-[(6-Methyl-4'-trifluoromethyl-biphenyl-2-carbonyl)-amino]-indan-2-ylmethyl}-carbamic acid methyl ester] came in with an IC50 of 4.1 nM. On to `COC(=O)N[C@H]1Cc2ccc(NC(=O)c3cccc(C)c3-c3ccc(C(F)(F)F)cc3)cc2C1` [{5-[(6-Methyl-4'-trifluoromethyl-biphenyl-2-carbonyl)-amino]-indan-2-yl}-carbamic acid methyl ester], for which the IC50 turned out to be 0.7 nM. This IC50 is about 5.9-fold lower than that of the compound before.
